According to patent US20240294569A1, “MODULATORS OF SORTILIN ACTIVITY” (Insusense ApS, priority 2021, published 2024):
Peptide text beside a SMILES is read from it.

Target: T1, hSortilin (Homo sapiens, UniProt Q99523)
T1 sequence (Q99523 78-831): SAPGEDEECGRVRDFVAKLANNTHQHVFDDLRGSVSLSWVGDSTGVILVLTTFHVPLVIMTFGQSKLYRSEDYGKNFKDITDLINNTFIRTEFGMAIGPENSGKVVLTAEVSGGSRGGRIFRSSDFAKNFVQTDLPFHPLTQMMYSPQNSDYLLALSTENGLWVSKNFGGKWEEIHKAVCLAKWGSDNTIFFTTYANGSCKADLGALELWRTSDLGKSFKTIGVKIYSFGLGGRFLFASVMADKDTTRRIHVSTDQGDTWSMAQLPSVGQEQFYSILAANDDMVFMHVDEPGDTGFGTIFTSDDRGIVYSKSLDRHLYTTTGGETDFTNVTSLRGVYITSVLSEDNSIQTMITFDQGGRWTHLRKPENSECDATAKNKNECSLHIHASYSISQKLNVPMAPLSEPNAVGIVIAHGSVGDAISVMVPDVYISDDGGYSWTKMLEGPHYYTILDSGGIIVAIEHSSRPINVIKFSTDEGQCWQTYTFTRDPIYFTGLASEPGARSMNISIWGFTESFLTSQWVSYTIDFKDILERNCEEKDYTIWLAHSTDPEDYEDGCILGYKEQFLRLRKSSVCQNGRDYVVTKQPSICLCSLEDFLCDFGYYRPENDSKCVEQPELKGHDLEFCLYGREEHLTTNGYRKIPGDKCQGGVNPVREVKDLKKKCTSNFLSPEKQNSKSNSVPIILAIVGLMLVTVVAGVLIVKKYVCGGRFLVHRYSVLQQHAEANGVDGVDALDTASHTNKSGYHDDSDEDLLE
Experiment: Neurotensin scintillation proximity assay (displacement of [3H]-neurotensin binding)
Settings: displacement of 5 nM [3H]-neurotensin from 150 nM 6his-Sortilin; average of at least 2 determinations; read-out: IC50 [3H]Neurotensin SPA
Method: The data of exemplified compounds of the invention tested in a Neurotensin (NTS) scintillation proximity assay (SPA). NTS, which is a 13 amino acid neuropeptide, is a sortilin ligand. The IC50 is a measure of the amount of the compound required to inhibit the binding of NTS to sortilin by 50%.
Compound affinity was determined by measuring the displacement of [^3H]-neurotensin binding to hSortilin in SPA format. Total volume of 40 μl in 50 mM HEPES pH 7.4 assay buffer containing 100 mM NaCl, 2.0 mM CaCl2, 0.1% BSA and 0.1% Tween-20. Compound pre-incubation for 30 minutes at room temperature with 150 nM of 6his-Sortilin before 5 nM [3H]-Neurotensin and Ni chelate imaging beads (Perkin Elmer) were added, after 6 hours the plate was read on a ViewLux with 360 s exposure time. Dose-response evaluation of compounds was performed with 8 concentrations of drugs (covering 3 decades). IC50 values were calculated by nonlinear regression using the sigmoid concentration-response (variable slope) using CDD Vault software. All values reported are average of at least 2 determinations.

Row | Structure (SMILES) | IC50 [nM]
1 | CC[C@H](C)[C@H](NC(=O)[C@H](Cc1ccc(O)cc1)NC(=O)[C@@H]1CCNC1)C(=O)N[C@@H](CCC(C)(C)C)C(=O)O [Example 21, (S)-2-((2S,3S)-2-((S)-3-(4-Hydroxyphenyl)-2-((R)-pyrrolidine-3-carboxamido)propan amido)-3-methylpentanamido)-5,5-dimethylhexanoic acid] | 180
2 | CC[C@H](C)[C@H](NC(=O)[C@H](Cc1ccc(O)cc1)NC(=O)[C@H]1COCCN1)C(=O)N[C@@H](CCC(C)(C)C)C(=O)O [Example 23, (S)-2-((2S,3S)-2-((S)-3-(4-Hydroxyphenyl)-2-((R)-morpholine-3-carboxamido)propan amido)-3-methylpentanamido)-5,5-dimethylhexanoic acid] | 100
3 | CC(C)(C)CC[C@H](NC(=O)[C@H](Cc1c[nH]c2ccccc12)NC(=O)[C@H](Cc1ccc(O)cc1)NC(=O)[C@@H]1CCCN1)C(=O)O [Example 14, (S)-2-((S)-2-((S)-3-(4-Hydroxyphenyl)-2-((S)-pyrrolidine-2-carboxamido)propan amido)-3-(1H-indol-3-yl)propanamido)-5,5-dimethylhexanoic acid] (HELM PEPTIDE1{P.Y.W.[CC(C)(C)CC[C@H](N[*:1])C(=O)O]}$$$$V2.0) | 60
4 | CC[C@H](C)[C@H](NC(=O)[C@H](C)NC(=O)[C@@H]1CCCN1)C(=O)N[C@@H](CCC(C)(C)C)C(=O)O [Example 17, (2S)-5,5-Dimethyl-2-((3S)-3-methyl-2-((S)-2-((S)-pyrrolidine-2-carboxamido)propan amido)pentanamido) hexanoic acid] (HELM PEPTIDE1{P.A.I.[CC(C)(C)CC[C@H](N[*:1])C(=O)O]}$$$$V2.0) | 70
5 | CC[C@H](C)[C@H](NC(=O)[C@H](Cc1ccc(O)cc1)NC(=O)[C@H]1CN(C(C)=O)CCO1)C(=O)N[C@@H](CCC(C)(C)C)C(=O)O [Example 25, (S)-2-((2S,3S)-2-((S)-2-((R)-4-Acetylmorpholine-2-carboxamido)-3-(4-hydroxyphenyl)propanamido)-3-methylpentanamido)-5,5-dimethylhexanoic acid] | 140
6 | CC[C@H](C)[C@H](NC(=O)[C@H](Cc1ccc(O)cc1)NC(C)=O)C(=O)N[C@@H](CCC(C)(C)C)C(=O)O [Example 28, (S)-2-((2S,3S)-2-((S)-2-Acetamido-3-(4-hydroxyphenyl)propanamido)-3-methylpentanamido)-5,5-dimethylhexanoic acid] | 190
7 | CC[C@H](C)[C@H](NC(=O)[C@H](Cc1ccc(O)cc1)NC(=O)[C@@H]1CNCCO1)C(=O)N[C@@H](CCC(C)(C)C)C(=O)O [Example 22, (S)-2-((2S,3S)-2-((S)-3-(4-Hydroxyphenyl)-2-((S)-morpholine-2-carboxamido)propan amido)-3-methylpentanamido)-5,5-dimethylhexanoic acid] | 70
8 | CC[C@H](C)[C@H](NC(=O)[C@H](Cc1ccc(O)cc1)NC(=O)[C@H]1CNCCO1)C(=O)N[C@@H](CCC(C)(C)C)C(=O)O [Example 30, (S)-2-((2S,3S)-2-((S)-3-(4-Hydroxyphenyl)-2-((R)-morpholine-2-carboxamido)propan amido)-3-methylpentanamido)-5,5-dimethylhexanoic acid] | 90
9 | CC[C@H](C)[C@H](NC(=O)[C@H](Cc1ccc(O)cc1)NC(C)=O)C(=O)N[C@@H](CCC(F)(F)F)C(=O)O [Example 3, (S)-2-((2S,3S)-2-((S)-2-Acetamido-3-(4-hydroxyphenyl)propanamido)-3-methylpentanamido)-5,5,5-trifluoropentanoic acid] | 1110
10 | Cn1cnc(C[C@H](NC(=O)[C@H](Cc2ccc(O)cc2)NC(=O)[C@@H]2CCCN2)C(=O)N[C@@H](CCC(C)(C)C)C(=O)O)c1 [Example 7, (S)-2-((S)-2-((S)-3-(4-Hydroxyphenyl)-2-((S)-pyrrolidine-2-carboxamido)propan amido)-3-(1-methyl-1H-imidazol-4-yl)propanamido)-5,5-dimethylhexanoic acid] (HELM PEPTIDE1{P.Y.[Cn1cnc(C[C@H](N[*:1])C(=O)[*:2])c1].[CC(C)(C)CC[C@H](N[*:1])C(=O)O]}$$$$V2.0) | 370
11 | CC(C)(C)CC[C@H](NC(=O)[C@H](Cc1ccncc1)NC(=O)[C@H](Cc1ccc(O)cc1)NC(=O)[C@@H]1CCCN1)C(=O)O [Example 8, (S)-2-((S)-2-((S)-3-(4-Hydroxyphenyl)-2-((S)-pyrrolidine-2-carboxamido)propan amido)-3-(pyridin-4-yl)propanamido)-5,5-dimethylhexanoic acid] (HELM PEPTIDE1{P.Y.[O=C([C@H](Cc1ccncc1)N[*:1])[*:2]].[CC(C)(C)CC[C@H](N[*:1])C(=O)O]}$$$$V2.0) | 200
12 | CC(C)(C)CC[C@H](NC(=O)[C@H](CN1CCOCC1)NC(=O)[C@H](Cc1ccc(O)cc1)NC(=O)[C@@H]1CCCN1)C(=O)O [Example 13, (S)-2-((S)-2-((S)-3-(4-Hydroxyphenyl)-2-((S)-pyrrolidine-2-carboxamido)propan amido)-3-morpholinopropan-amido)-5,5-dimethylhexanoic acid] (HELM PEPTIDE1{P.Y.[O=C([C@H](CN1CCOCC1)N[*:1])[*:2]].[CC(C)(C)CC[C@H](N[*:1])C(=O)O]}$$$$V2.0) | 160

The remaining compounds from weak to strong by IC50, led by results:

Row | IC50 [nM] | Structure (SMILES)
13 | 2860 | CC[C@H](C)[C@H](NC(=O)[C@H](Cc1ccc(O)cc1)NC(=O)[C@H]1CCCO1)C(=O)N[C@@H](CCC(F)(F)F)C(=O)O [Example 2, (2S)-5,5,5-trifluoro-2-[(2S,3S)-2-[(S)-3-(4-hydroxyphenyl)-2-{[(2R)-oxolan-2-yl]formamido}propanamido]-3-methylpentanamido] pentoic acid]
14 | 1690 | CC[C@H](C)[C@H](NC(=O)[C@H](Cc1ccc(O)cc1)NC(=O)[C@H]1CN(C(C)=O)CCO1)C(=O)N[C@@H](CCC(F)(F)F)C(=O)O [Example 4, (S)-2-((2S,3S)-2-((S)-2-((R)-4-Acetylmorpholine-2-carboxamido)-3-(4-hydroxyphenyl)propanamido)-3-methylpentanamido)-5,5,5-trifluoropentanoic acid]
15 | 140 | CC(C)(C)CC[C@H](NC(=O)[C@H](Cc1ccsc1)NC(=O)[C@H](Cc1ccc(O)cc1)NC(=O)[C@@H]1CCCN1)C(=O)O [Example 9, (S)-2-((S)-2-((S)-3-(4-Hydroxyphenyl)-2-((S)-pyrrolidine-2-carboxamido)propan amido)-3-(thiophen-3-yl)propanamido)-5,5-dimethylhexanoic acid] (HELM PEPTIDE1{P.Y.[O=C([C@H](Cc1ccsc1)N[*:1])[*:2]].[CC(C)(C)CC[C@H](N[*:1])C(=O)O]}$$$$V2.0)
16 | 100 | CC[C@H](C)[C@H](NC(=O)[C@H](Cc1ccc(O)cc1)NC(=O)[C@@H]1CNCCN1)C(=O)N[C@@H](CCC(C)(C)C)C(=O)O [Example 19, (S)-2-((2S,3S)-2-((S)-3-(4-Hydroxyphenyl)-2-((S)-piperazine-2-carboxamido)propan amido)-3-methylpentanamido)-5,5-dimethylhexanoic acid] (HELM PEPTIDE1{[O=C([C@@H]1CNCCN1)[*:2]].Y.I.[CC(C)(C)CC[C@H](N[*:1])C(=O)O]}$$$$V2.0)
17 | 70 | CC(C)(C)CC[C@H](NC(=O)[C@H](Cc1cscn1)NC(=O)[C@H](Cc1ccc(O)cc1)NC(=O)[C@@H]1CCCN1)C(=O)O [Example 12, (S)-2-((S)-2-((S)-3-(4-Hydroxyphenyl)-2-((S)-pyrrolidine-2-carboxamido)propan amido)-3-(thiazol-4-yl)propanamido)-5,5-dimethylhexanoic acid] (HELM PEPTIDE1{P.Y.[O=C([C@H](Cc1cscn1)N[*:1])[*:2]].[CC(C)(C)CC[C@H](N[*:1])C(=O)O]}$$$$V2.0)
18 | 60 | CC(C)(C)CC[C@H](NC(=O)[C@H](Cc1cscn1)NC(=O)[C@H](CCC(N)=O)NC(=O)[C@@H]1CCCN1)C(=O)O [Example 11, (S)-2-((S)-2-((S)-5-Amino-5-oxo-2-((S)-pyrrolidine-2-carboxamido)pentan amido)-3-(thiazol-4-yl)propanamido)-5,5-dimethylhexanoic acid] (HELM PEPTIDE1{P.Q.[O=C([C@H](Cc1cscn1)N[*:1])[*:2]].[CC(C)(C)CC[C@H](N[*:1])C(=O)O]}$$$$V2.0)
